Reference: patent publication US7875647B2, “Heteroaryl-pyrazole derivatives as cannabinoid CB1 receptor antagonists” (Green Cross Corporation, priority 2006, dated 2011)
Like-named read-outs stand apart in the source and are kept apart here.

Target: T1, Cannabinoid-1 receptor (CB1R) (Rattus norvegicus, UniProt P20272)
T1 construct: The tissue obtained from the brain of SD rats was homogenized; from tissue; host or cells: brain of SD rats (membrane pellet of the homogenate)
Assay: Cannabinoid-1 receptor (CB1R) binding affinity assay ([3H]CP-55940, rat CB-1 receptor binding protocol)
Conditions: brain tissue of SD rats, [3H]CP-55940, 30° C. 60 min

T1 sequence (P20272 whole entry): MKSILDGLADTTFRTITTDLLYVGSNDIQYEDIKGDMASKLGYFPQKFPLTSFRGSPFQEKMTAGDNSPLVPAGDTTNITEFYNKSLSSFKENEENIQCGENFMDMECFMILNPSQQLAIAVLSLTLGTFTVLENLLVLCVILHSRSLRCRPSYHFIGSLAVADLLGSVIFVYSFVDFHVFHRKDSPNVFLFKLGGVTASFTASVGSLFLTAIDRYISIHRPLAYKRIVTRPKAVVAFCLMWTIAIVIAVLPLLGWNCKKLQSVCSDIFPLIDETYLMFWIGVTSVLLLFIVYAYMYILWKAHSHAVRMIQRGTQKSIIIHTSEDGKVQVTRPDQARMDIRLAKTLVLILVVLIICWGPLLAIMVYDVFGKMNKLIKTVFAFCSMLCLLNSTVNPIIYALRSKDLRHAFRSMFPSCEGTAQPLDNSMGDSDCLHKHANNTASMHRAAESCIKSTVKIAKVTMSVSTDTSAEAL

SMILES	IC50 (read-out: IC50)	IC50 (IC50(nM))
CCC(C)c1nnc(-c2nn(-c3ccc(Cl)cc3)c(-c3ccc(Br)cc3)c2C)s1 (stereo not shown) [Example 418, 2-(5-(4-bromophenyl)-1-(4-chlorophenyl)-4-methyl-1H-pyrazol-3-yl)-5-sec-butyl-1,3,4-thiadiazole]	465 nM	–
COC(C)(C)c1nnc(-c2nn(-c3ccc(Cl)cc3Cl)c(-c3ccc(Cl)cc3)c2C)s1 [Example 419, 2-(5-(4-chlorophenyl)-1-(2,4-dichlorophenyl)-4-methyl-1H-pyrazol-3-yl)-5-(2-methoxypropan-2-yl)-1,3,4-thiadiazole]	62.1 nM	–
CCC(C)(C)c1nnc(-c2nn(-c3ccc(Cl)cc3Cl)c(-c3ccccc3)c2C)s1 [Example 420, 2-(1-(2,4-dichlorophenyl)-4-methyl-5-phenyl-1H-pyrazol-3-yl)-5-tert-pentyl-1,3,4-thiadiazole]	112 nM	–
Cc1c(-c2nnc(C(C)(C)C)s2)nn(-c2ccc(Cl)cc2Cl)c1-c1ccccc1 [Example 421, 2-tert-butyl-5-(1-(2,4-dichlorophenyl)-4-methyl-5-phenyl-1H-pyrazol-3-yl)-1,3,4-thiadiazole]	160 nM	–
CCC(C)c1nnc(-c2nn(-c3ccc(Cl)cc3Cl)c(-c3ccccc3)c2C)s1 (stereo not shown) [Example 422, 2-sec-butyl-5-(1-(2,4-dichlorophenyl)-4-methyl-5-phenyl-1H-pyrazol-3-yl)-1,3,4-thiadiazole]	226 nM	–
Cc1c(-c2nnc(C3CCC3)s2)nn(-c2ccc(Cl)cc2Cl)c1-c1ccccc1 [Example 423, 2-cyclobutyl-5-(1-(2,4-dichlorophenyl)-4-methyl-5-phenyl-1H-pyrazol-3-yl)-1,3,4-thiadiazole]	168 nM	–
Cc1c(-c2nnc(C3CCC3)s2)nn(-c2ccc(Cl)cc2)c1-c1ccc(Br)cc1 [Example 424, 2-(5-(4-bromophenyl)-1-(4-chlorophenyl)-4-methyl-1H-pyrazol-3-yl)-5-cyclobutyl-1,3,4-thiadiazole]	966 nM	–
Cc1c(-c2nnc(C(C)(C)C)s2)nn(-c2ccccc2Cl)c1-c1ccc(Br)cc1 [Example 425, 2-(5-(4-bromophenyl)-1-(2-chlorophenyl)-4-methyl-1H-pyrazol-3-yl)-5-tert-butyl-1,3,4-thiadiazole]	11.2 nM	–
Cc1c(-c2nnc(C3CCC3)s2)nn(-c2ccccc2Cl)c1-c1ccc(Br)cc1 [Example 427, 2-(5-(4-bromophenyl)-1-(2-chlorophenyl)-4-methyl-1H-pyrazol-3-yl)-5-cyclobutyl-1,3,4-thiadiazole]	29.6 nM	–
CCC(C)c1nnc(-c2nn(-c3ccccc3Cl)c(-c3ccc(Br)cc3)c2C)s1 (stereo not shown) [Example 428, 2-(5-(4-bromophenyl)-1-(2-chlorophenyl)-4-methyl-1H-pyrazol-3-yl)-5-sec-butyl-1,3,4-thiadiazole]	15.7 nM	–
CCC(C)(C)c1nnc(-c2nn(-c3ccccc3Cl)c(-c3ccc(Br)cc3)c2C)s1 [Example 429, 2-(5-(4-bromophenyl)-1-(2-chlorophenyl)-4-methyl-1H-pyrazol-3-yl)-5-tert-pentyl-1,3,4-thiadiazole]	8.67 nM	–
Cc1c(-c2nnc(C3(c4ccc(Cl)cc4)CC3)s2)nn(-c2ccc(Cl)cc2Cl)c1-c1ccc(Cl)cc1 [Example 430, 2-(5-(4-chlorophenyl)-1-(2,4-dichlorophenyl)-4-methyl-1H-pyrazol-3-yl)-5-(1-(4-chlorophenyl)cyclopropyl)-1,3,4-thiadiazole]	13.9 nM	–
Cc1c(-c2nnc(C3(c4ccc(Cl)cc4)CCC3)s2)nn(-c2ccc(Cl)cc2Cl)c1-c1ccc(Cl)cc1 [Example 431, 2-(5-(4-chlorophenyl)-1-(2,4-dichlorophenyl)-4-methyl-1H-pyrazol-3-yl)-5-(1-(4-chlorophenyl)cyclobutyl)-1,3,4-thiadiazole]	7.5 nM	–
CCc1c(-c2nnc(C3(c4ccc(Cl)cc4)CC3)s2)nn(-c2ccc(Cl)cc2Cl)c1-c1ccc(Br)cc1 [Example 432, 2-(5-(4-bromophenyl)-1-(2,4-dichlorophenyl)-4-ethyl-1H-pyrazol-3-yl)-5-(1-(4-chlorophenyl)cyclopropyl)-1,3,4-thiadiazole]	7.98 nM	–
Cc1c(-c2nnc(C3(c4ccc(Cl)cc4)CC3)s2)nn(-c2ccccc2Cl)c1-c1ccc(Cl)cc1 [Example 433, 2-(1-(2-chlorophenyl)-5-(4-chlorophenyl)-4-methyl-1H-pyrazol-3-yl)-5-(1-(4-chlorophenyl)cyclopropyl)-1,3,4-thiadiazole]	7.53 nM	–
Cc1c(-c2nnc(C(C)(C)C)s2)nn(-c2ccc(Cl)cc2Cl)c1-c1cccc(Cl)c1 [Example 434, 2-tert-butyl-5-(5-(3-chlorophenyl)-1-(2,4-dichlorophenyl)-4-methyl-1H-pyrazol-3-yl)-1,3,4-thiadiazole]	172 nM	–
CCC(C)c1nnc(-c2nn(-c3ccc(Cl)cc3Cl)c(-c3cccc(Cl)c3)c2C)s1 (stereo not shown) [Example 435, 2-sec-butyl-5-(5-(3-chlorophenyl)-1-(2,4-dichlorophenyl)-4-methyl-1H-pyrazol-3-yl)-1,3,4-thiadiazole]	277 nM	–

SMILES	IC50 (read-out: IC50)	IC50 (IC50(nM))
Cc1c(-c2nnc(C3CCC3)s2)nn(-c2ccc(Cl)cc2Cl)c1-c1cccc(Cl)c1 [Example 436, 2-(5-(3-chlorophenyl)-1-(2,4-dichlorophenyl)-4-methyl-1H-pyrazol-3-yl)-5-cyclobutyl-1,3,4-thiadiazole]	893 nM	–
CCOC(C)(C)c1nnc(-c2nn(-c3ccc(Cl)cc3Cl)c(-c3ccc(Cl)cc3)c2C)s1 [Example 437, 2-(5-(4-chlorophenyl)-1-(2,4-dichlorophenyl)-4-methyl-1H-pyrazol-3-yl)-5-(2-ethoxypropan-2-yl)-1,3,4-thiadiazole]	53.6 nM	–
CCC(C)(C)c1nnc(-c2nn(-c3ccc(Cl)cc3Cl)c(-c3cccc(Cl)c3)c2C)s1 [Example 439, 2-(5-(3-Chlorophenyl)-1-(2,4-dichlorophenyl)-4-methyl-1H-pyrazol-3-yl)-5-tert-pentyl-1,3,4-thiadiazole]	263 nM	–
Clc1ccc(-c2c(C3CC3)c(-c3nnc(C4CCCCC4)s3)nn2-c2ccc(Cl)cc2Cl)cc1 [Example 440, 2-(5-(4-chlorophenyl)-4-cyclopropyl-1-(2,4-dichlorophenyl)-1H-pyrazol-3-yl)-5-cyclohexyl-1,3,4-thiadiazole]	11 nM	–
CC(C)(C)c1nnc(-c2nn(-c3ccc(Cl)cc3Cl)c(-c3ccc(Cl)cc3)c2C2CC2)s1 [Example 441, 2-tert-butyl-5-(5-(4-chlorophenyl)-4-cyclopropyl-1-(2,4-dichlorophenyl)-1H-pyrazol-3-yl)-1,3,4-thiadiazole]	–	29.8 nM
Clc1ccc(-c2c(C3CC3)c(-c3nnc(C4CCC4)s3)nn2-c2ccc(Cl)cc2Cl)cc1 [Example 442, 2-(5-(4-chlorophenyl)-4-cyclopropyl-1-(2,4-dichlorophenyl)-1H-pyrazol-3-yl)-5-cyclobutyl-1,3,4-thiadiazole]	18 nM	–
CCC(C)c1nnc(-c2nn(-c3ccc(Cl)cc3)c(-c3ccc(Cl)cc3)c2C)s1 (stereo not shown) [Example 444, 2-(1,5-bis(4-chlorophenyl)-4-methyl-1H-pyrazol-3-yl)-5-sec-butyl-1,3,4-thiadiazole]	292 nM	–
Cc1c(-c2nnc(C3(c4ccc(Cl)cc4)CC3)s2)nn(-c2ccc(Cl)cc2)c1-c1ccc(Cl)cc1 [Example 447, 2-(1,5-bis(4-chlorophenyl)-4-methyl-1H-pyrazol-3-yl)-5-(1-(4-chlorophenyl)cyclopropyl)-1,3,4-thiadiazole]	453 nM	–
CCC(C)(C)c1nnc(-c2nn(-c3ccc(Cl)cc3)c(-c3ccc(Cl)cc3)c2C)s1 [Example 448, 2-(1,5-bis(4-chlorophenyl)-4-methyl-1H-pyrazol-3-yl)-5-tert-pentyl-1,3,4-thiadiazole]	199 nM	–
CCCOC(C)(C)c1nnc(-c2nn(-c3ccc(Cl)cc3Cl)c(-c3ccc(Cl)cc3)c2C)s1 [Example 449, 2-(5-(4-chlorophenyl)-1-(2,4-dichlorophenyl)-4-methyl-1H-pyrazol-3-yl)-5-(2-propoxypropan-2-yl)-1,3,4-thiadiazole]	61.3 nM	–
CCc1c(-c2nnc(C3(c4ccccc4)CC3)s2)nn(-c2ccc(Cl)cc2Cl)c1-c1ccc(Br)cc1 [Example 450, 2-(5-(4-bromophenyl)-1-(2,4-dichlorophenyl)-4-ethyl-1H-pyrazol-3-yl)-5-(1-phenylcyclopropyl)-1,3,4-thiadiazole]	7.42 nM	–
CCc1c(-c2nnc(C(C)(C)CC)s2)nn(-c2ccc(Cl)cc2Cl)c1-c1ccc(Br)cc1 [Example 451, 2-(5-(4-bromophenyl)-1-(2,4-dichlorophenyl)-4-ethyl-1H-pyrazol-3-yl)-5-tert-pentyl-1,3,4-thiadiazole]	19.7 nM	–
CCc1c(-c2nnc(C3CC4CCC3C4)s2)nn(-c2ccc(Cl)cc2Cl)c1-c1ccc(Br)cc1 (stereo not shown) [Example 452, 2-(bicyclo[2.2.1]heptan-2-yl)-5-(5-(4-bromophenyl)-1-(2,4-dichlorophenyl)-4-ethyl-1H-pyrazol-3-yl)-1,3,4-thiadiazole]	54.1 nM	–
CCc1c(-c2nnc(C(C)C)s2)nn(-c2ccc(Cl)cc2Cl)c1-c1ccc(Br)cc1 [Example 453, 2-(5-(4-bromophenyl)-1-(2,4-dichlorophenyl)-4-ethyl-1H-pyrazol-3-yl)-5-isopropyl-1,3,4-thiadiazole]	27.1 nM	–
CCc1c(-c2nnc(C(CC)CC)s2)nn(-c2ccc(Cl)cc2Cl)c1-c1ccc(Br)cc1 [Example 454, 2-(5-(4-bromophenyl)-1-(2,4-dichlorophenyl)-4-ethyl-1H-pyrazol-3-yl)-5-(pentan-3-yl)-1,3,4-thiadiazole]	23.1 nM	–
CCc1c(-c2nnc(C3(C)CCCCC3)s2)nn(-c2ccc(Cl)cc2Cl)c1-c1ccc(Br)cc1 [Example 455, 2-(5-(4-bromophenyl)-1-(2,4-dichlorophenyl)-4-ethyl-1H-pyrazol-3-yl)-5-(1-methylcyclohexyl)-1,3,4-thiadiazole]	14.5 nM	–
C=CCOC(C)(C)c1nnc(-c2nn(-c3ccc(Cl)cc3Cl)c(-c3ccc(Cl)cc3)c2C)s1 [Example 456, 2-(2-(allyloxy)propan-2-yl)-5-(5-(4-chlorophenyl)-1-(2,4-dichlorophenyl)-4-methyl-1H-pyrazol-3-yl)-1,3,4-thiadiazole]	61 nM	–
